Laboratory results from patent EP0515684A1, “INHIBITOR OF DENATURED LDL FORMATION” (Chugai Seiyaku Kabushiki Kaisha, priority 1990, dated 1991).

Test system: rabbit LDL
Assay: Amount of thiobarbituric acid reactive substances (TBARS) formed on Cu2+ oxidation of LDL
Type: biochemical
Settings: 5 µM of Cu²⁺ added to rabbit LDL, followed by heating
Method: The biological properties of the compounds as shown hereinafter were examined by the following methods. • (1) The amount of thiobarbituric acid reactive substances: 5 µM of Cu²⁺ was added to rabbit LDL, prepared by the method reported by Havel et al., followed by heating. Then the antioxidative effect of each compound was examined by using the thiobarbituric acid reactive substances (TBARS) thus formed as the guidance. […] 0.5 ml of an n-butanol solution containing 0.2 µM of MCLA and 10 mM of linoleic acid was introduced into a vial for luminescence analysis and the luminescence due to autoxidation was measured in a thermostat at 37°C. […] To the obtained plasma, were added EDTA-NaN₃ (a 5% solution of pH 7.4) and a benzamidine solution (60 mg/ml) respectively in amounts of 0.8 ml and 0.5 ml per 100 ml of the plasma. Then rabbit or human LDL (1.019 < d < 1.063) was prepared by ultracentrifugation in accordance with the method of Havel et al.*. After performing the ultracentifugation again, the LDL was washed and concentrated. Then it was dialyzed against a 150 mM NaCl - 2 mM Na₂HPO₄ solution at 4°C and KBr was removed. The protein content was determined by Lowry method** and then the LDL was subjected to the subsequent procedure. (Measurement of electrophoretic mobility in agarose gel) 10 µM of Cu²⁺ and a specimen were added to an LDL-containing solution (3.00 µg protein/ml). After incubating at 37°C for approximately 24 hours, a portion (1 µl) thereof was applied onto an agarose gel film (Universal Film, manufactured by Corning Co.) and then subjected to electrophoresis (Agarose Gel Electrophoresis System for Lipoprotein, manufactured by Corning Co.). Thus the mobility was measured by staining lipids with Fat Red 7B. […] After 3 days, peritoneal macrophages were collected from the mouse and incubated in an RPMI 1640 medium containing 10% of FBS. The macrophages were used in the • examination on the next day.

| Structure (SMILES) | Formed TBARS (%) (Compound conc. 10^-5 M, 10 µM) | Formed TBARS (%) (Compound conc. 10^-6 M, 1 µM) |
| --- | --- | --- |
| COC(=O)c1ccc(CNc2cc(OC)c(OC)c(OC)c2)cc1 [Compound 60] | 17 | 46 |
| COc1cc(NCc2cccnc2)cc(OC)c1OC [Compound 99] | 47 | 79 |
| COc1cc(NCc2nccn2CC=C(C)CCC=C(C)CCC=C(C)C)cc(OC)c1OC [Compound 100] | 13 | 81 |
| COc1cc(NCc2ccc[nH]2)cc(OC)c1OC [Compound 94] | 63 | 87 |
| COc1cc(N(CC=C(C)CCCC(C)CCCC(C)CCCC(C)C)Cc2ccccc2)cc(OC)c1OC (stereo not shown) [Compound 9] | 57 | 78 |
| C=CCN(Cc1ccco1)c1cc(OC)c(OC)c(OC)c1 [Compound 96] | 43 | 67 |
| COc1cc(N(CC=C(C)C)CC=C(C)C)cc(OC)c1OC [Compound 117] | 35 | 63 |
| C=CCC(Nc1cc(OC)c(OC)c(OC)c1)c1ccccc1 (stereo not shown) [Compound 80] | 17 | 33 |
| COc1cc(NCc2ccc([N+](=O)[O-])cc2)cc(OC)c1OC [Compound 64] | 17 | 38 |
| CCCCC(Nc1cc(OC)c(OC)c(OC)c1)c1ccccc1 (stereo not shown) [Compound 77, N-(1-phenylpentyl)-3,4,5-trimethoxyaniline] | 17 | 31 |
| COc1cc(NC2CCCc3ccccc32)cc(OC)c1OC (stereo not shown) [Compound 90] | 9 | 26 |
| COc1cc(NCc2cccc(Br)c2)cc(OC)c1OC [Compound 27] | 12 | 29 |
| CCCCCCCCC(Nc1cc(OC)c(OC)c(OC)c1)c1ccccc1 (stereo not shown) [Compound 79] | 19 | 46 |
| COc1cc(N(CC2CCCCC2)CC2CCCCC2)cc(OC)c1OC [Compound 104] | 23 | 31 |
| COc1cc(NCc2ccccc2Br)cc(OC)c1OC [Compound 28] | 13 | 30 |
| COc1cc(NCc2ccc(OC(C)(C)C(=O)O)cc2)cc(OC)c1OC [Compound 56] | 59 | 77 |
| CCN(Cc1ccccc1)c1cc(OC)c(OC)c(OC)c1 [Compound 3, N-benzyl-N-ethyl-3,4,5-trimethoxyaniline] | 35 | 51 |
| COc1cc(NCc2ccc(OC/C=C(\C)CCCC(C)CCCC(C)CCCC(C)C)cc2)cc(OC)c1OC (stereo not shown) [Compound 48] | 40 | 90 |
| CCCCCCCCCCCCNc1cc(OC)c(OC)c(OC)c1 [Compound 113] | 29 | 66 |
| COc1cc(NCc2ccc(OC/C=C(\C)CCC=C(C)C)cc2)cc(OC)c1OC [Compound 47] | 17 | 76 |
| COc1cc(NCc2ccc(C)c(C)c2)cc(OC)c1OC [Compound 10] | 9 | 25 |
| CCCC(Nc1cc(OC)c(OC)c(OC)c1)C1CCCCC1 (stereo not shown) [Compound 106] | 8 | 16 |
| COc1cc(NC(CC(C)C)c2ccccc2)cc(OC)c1OC (stereo not shown) [Compound 81] | 15 | 25 |
| COc1cc(NC(CCc2ccccc2)C(C)C)cc(OC)c1OC (stereo not shown) [Compound 83] | 15 | 28 |
| COc1cc(NCc2ccc(CNc3cc(OC)c(OC)c(OC)c3)cc2)cc(OC)c1OC [Compound 57] | 12 | 34 |

| Structure (SMILES) | Formed TBARS (%) (Compound conc. 10^-5 M, 10 µM) | Formed TBARS (%) (Compound conc. 10^-6 M, 1 µM) |
| --- | --- | --- |
| COc1cc(NC2CCC3CCCCC3C2)cc(OC)c1OC (stereo not shown) [Compound 110] | 7 | 16 |
| COc1cc(NCc2ccccc2SCCC(C)CCCC(C)C)cc(OC)c1OC (stereo not shown) [Compound 50] | 17 | 70 |
| COc1cc(N(C)Cc2ccccc2)cc(OC)c1OC [Compound 2, N-benzyl-N-methyl-3,4,5-trimethoxyaniline] | 31 | 56 |
| CCCCC(Nc1cc(OC)c(OC)c(OC)c1)C1CCCCC1 (stereo not shown) [Compound 108] | 8 | 21 |
| CCOC(=O)CCCCCCOc1ccc(CNc2cc(OC)c(OC)c(OC)c2)cc1 [Compound 53] | 13 | 38 |
| CCCCCCC(Nc1cc(OC)c(OC)c(OC)c1)c1ccccc1 (stereo not shown) [Compound 78] | 14 | 29 |
| COc1cc(NCc2ccc(Br)cc2)cc(OC)c1OC [Compound 26] | 12 | 27 |
| COc1cc(CNc2cc(OC)c(OC)c(OC)c2)cc(OC)c1OC [Compound 35] | 28 | 52 |
| COc1cc(NCc2ccc(CO)cc2)cc(OC)c1OC [Compound 67] | 35 | 55 |
| CCCCCCCCCCCCOc1ccc(CNc2cc(OC)c(OC)c(OC)c2)cc1OCCCCCCCCCCCC [Compound 43] | 62 | 94 |
| COc1cc(NCc2ccc(OC/C=C(\C)CC/C=C(\C)CCC=C(C)C)cc2)cc(OC)c1OC [Compound 49] | 39 | 78 |
| COc1cc(N(CC=Cc2ccccc2)CC=Cc2ccccc2)cc(OC)c1OC [Compound 86] | 27 | 52 |
| COc1cc(NC(c2ccccc2)c2ccccc2)cc(OC)c1OC [Compound 82] | 15 | 34 |
| COc1cc(NCCCc2ccccc2)cc(OC)c1OC [Compound 70] | 18 | 25 |
| COc1cc(NCc2ccccc2OCCC(C)CCCC(C)C)cc(OC)c1OC (stereo not shown) [Compound 45] | 15 | 80 |
| COc1cc(NC2CCCC3CCCCC32)cc(OC)c1OC (stereo not shown) [Compound 109] | 10 | 20 |
| COc1cc(NCc2ccccc2OC/C=C(\C)CCC=C(C)C)cc(OC)c1OC [Compound 46] | 13 | 69 |
| COc1cc(NCc2cccs2)cc(OC)c1OC [Compound 97] | 24 | 44 |
| COc1cc(NCc2c(F)c(F)c(F)c(F)c2F)cc(OC)c1OC [Compound 29] | 20 | 39 |
| COc1cc(N(CCCc2ccccc2)Cc2c(F)c(F)c(F)c(F)c2F)cc(OC)c1OC [Compound 30] | 26 | 57 |
| CCCCCCOc1ccc(CNc2cc(OC)c(OC)c(OC)c2)cc1 [Compound 41] | 16 | 63 |
| COc1cc(NCc2cccc(Oc3ccccc3)c2)cc(OC)c1OC [Compound 51] | 16 | 32 |
| CCOC(=O)C(C)(C)Oc1ccc(CNc2cc(OC)c(OC)c(OC)c2)cc1 [Compound 55] | 20 | 46 |
| COc1cc(N(CC=C(C)CCC=C(C)C)Cc2ccccc2)cc(OC)c1OC [Compound 8] | 31 | 55 |
| COc1cc(NCCCc2ccc(CO)cc2)cc(OC)c1OC [Compound 75] | 16 | 38 |
